Source: PubChem BioAssay (NCI)
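Abbreviation: GI50, concentration required for 50% inhibition of growth. At the TGI there is no net growth.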

Experiments:
Test in all cases: NCI-60 cell line screen, 384-well format
COLO 205 colon = tested on: COLO 205 colon
TK-10 renal = tested on: TK-10 renal
M14 melanoma = tested on: M14 melanoma
T-47D breast = tested on: T-47D breast
NCI/ADR-RES ovarian = tested on: NCI/ADR-RES ovarian
HL-60(TB) leukemia = tested on: HL-60(TB) leukemia
SNB-75 CNS = tested on: SNB-75 CNS
A498 renal = tested on: A498 renal
PC-3 prostate = tested on: PC-3 prostate
SK-MEL-2 melanoma = tested on: SK-MEL-2 melanoma
SN12C renal = tested on: SN12C renal
K-562 leukemia = tested on: K-562 leukemia
HS 578T breast = tested on: HS 578T breast
NCI-H522 lung = tested on: NCI-H522 lung
A549 NSCLC = tested on: A549 NSCLC
SK-MEL-28 melanoma = tested on: SK-MEL-28 melanoma
RXF 393 renal = tested on: RXF 393 renal
SK-MEL-5 melanoma = tested on: SK-MEL-5 melanoma
UO-31 renal = tested on: UO-31 renal
SF-539 CNS = tested on: SF-539 CNS
MOLT-4 leukemia = tested on: MOLT-4 leukemia
HCT-15 colon = tested on: HCT-15 colon
NCI-H23 lung = tested on: NCI-H23 lung
MDA-MB-231 breast = tested on: MDA-MB-231 breast
DU-145 prostate = tested on: DU-145 prostate
EKVX NSCLC = tested on: EKVX NSCLC
HT29 colon = tested on: HT29 colon
MDA-MB-468 breast = tested on: MDA-MB-468 breast
OVCAR-8 ovarian = tested on: OVCAR-8 ovarian
UACC-62 melanoma = tested on: UACC-62 melanoma
SF-268 CNS = tested on: SF-268 CNS
MALME-3M melanoma = tested on: MALME-3M melanoma
HCC-2998 colon = tested on: HCC-2998 colon
RPMI-8226 leukemia = tested on: RPMI-8226 leukemia
UACC-257 melanoma = tested on: UACC-257 melanoma
ACHN renal = tested on: ACHN renal
CAKI-1 renal = tested on: CAKI-1 renal
NCI-H226 lung = tested on: NCI-H226 lung
NCI-H460 NSCLC = tested on: NCI-H460 NSCLC
786-0 renal = tested on: 786-0 renal
IGROV1 ovarian = tested on: IGROV1 ovarian
OVCAR-5 ovarian = tested on: OVCAR-5 ovarian
OVCAR-4 ovarian = tested on: OVCAR-4 ovarian
SR leukemia = tested on: SR leukemia
U251 glioblastoma = tested on: U251 glioblastoma
SF-295 CNS = tested on: SF-295 CNS
SNB-19 CNS = tested on: SNB-19 CNS

## CC[C@H](NC(=O)[C@H](CS(=O)(=O)CC1CC1)N[C@@H](c1ccc(F)cc1)C(F)(F)F)C(=O)C(=O)NC1CC1
COLO 205 colon
  GI50: > 100 µM
  TGI: > 100 µM
TK-10 renal
  GI50: > 100 µM
  TGI: > 100 µM
M14 melanoma
  GI50: > 100 µM
  TGI: > 100 µM
T-47D breast
  GI50: > 59.9 µM
  TGI: > 100 µM
NCI/ADR-RES ovarian
  GI50: > 100 µM
  TGI: > 100 µM
HL-60(TB) leukemia
  GI50: 84.2 µM
  TGI: > 100 µM
SNB-75 CNS
  GI50: > 89.5 µM
  TGI: > 100 µM
A498 renal
  GI50: > 100 µM
  TGI: > 100 µM
PC-3 prostate
  GI50: > 100 µM
  TGI: > 100 µM
SK-MEL-2 melanoma
  GI50: > 100 µM
  TGI: > 100 µM
SN12C renal
  GI50: > 100 µM
  TGI: > 100 µM
K-562 leukemia
  GI50: > 93.1 µM
  TGI: > 100 µM
HS 578T breast
  GI50: > 100 µM
  TGI: > 100 µM
NCI-H522 lung
  GI50: > 100 µM
  TGI: > 100 µM
A549 NSCLC
  GI50: > 100 µM
  TGI: > 100 µM
SK-MEL-28 melanoma
  GI50: > 100 µM
  TGI: > 100 µM
RXF 393 renal
  GI50: > 88.2 µM
  TGI: > 100 µM
SK-MEL-5 melanoma
  GI50: > 100 µM
  TGI: > 100 µM
UO-31 renal
  GI50: > 100 µM
  TGI: > 100 µM
SF-539 CNS
  GI50: > 100 µM
  TGI: > 100 µM
MOLT-4 leukemia
  GI50: 29.5 µM
  TGI: > 100 µM
HCT-15 colon
  GI50: > 100 µM
  TGI: > 100 µM
NCI-H23 lung
  GI50: > 100 µM
  TGI: > 100 µM
MDA-MB-231 breast
  GI50: > 100 µM
  TGI: > 100 µM
DU-145 prostate
  GI50: > 100 µM
  TGI: > 100 µM
EKVX NSCLC
  GI50: 98.7 µM
  TGI: > 100 µM
HT29 colon
  GI50: > 100 µM
  TGI: > 100 µM
MDA-MB-468 breast
  GI50: 22.8 µM
  TGI: 67.5 µM
OVCAR-8 ovarian
  GI50: > 100 µM
  TGI: > 100 µM
UACC-62 melanoma
  GI50: > 100 µM
  TGI: > 100 µM
SF-268 CNS
  GI50: > 51.4 µM
  TGI: > 93.9 µM
MALME-3M melanoma
  GI50: > 100 µM
  TGI: > 100 µM
HCC-2998 colon
  GI50: > 100 µM
  TGI: > 100 µM
RPMI-8226 leukemia
  GI50: 77.2 µM
  TGI: > 100 µM
UACC-257 melanoma
  GI50: > 100 µM
  TGI: > 100 µM
ACHN renal
  GI50: > 100 µM
  TGI: > 100 µM
CAKI-1 renal
  GI50: > 100 µM
  TGI: > 100 µM
NCI-H226 lung
  GI50: > 71.7 µM
  TGI: > 100 µM
NCI-H460 NSCLC
  GI50: > 100 µM
  TGI: > 100 µM
786-0 renal
  GI50: > 100 µM
  TGI: > 100 µM
IGROV1 ovarian
  GI50: > 100 µM
  TGI: > 100 µM
OVCAR-5 ovarian
  GI50: > 100 µM
  TGI: > 100 µM
OVCAR-4 ovarian
  GI50: > 100 µM
  TGI: > 100 µM
SR leukemia
  GI50: 19.3 µM
  TGI: 74.5 µM
U251 glioblastoma
  GI50: > 100 µM
  TGI: > 100 µM
SF-295 CNS
  GI50: > 100 µM
  TGI: > 100 µM
SNB-19 CNS
  GI50: > 100 µM
  TGI: > 100 µM
